Several values for one entry are separate records, joined by “and”; a condition that tells them apart may be missing. Equal entries are not always repeated.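 Step 1: Grow cells in 96-well plates. Step 2: Expose to compound for 48 hours at 5 concentrations. Step 3: Interpolate endpoints linearly; if unreached, use highest concentration. GI50: concentration for 50% inhibition of growth. The concentration for full growth arrest is given as TGI.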
What was measured:
Assay in all cases: inhibition of tumour cell growth, NCI panel, 48 h
EKVX NSCLC = system: EKVX NSCLC
HOP-62 NSCLC = system: HOP-62 NSCLC
NCI-H460 lung = system: NCI-H460 lung
OVCAR-5 ovarian = system: OVCAR-5 ovarian
SF-268 CNS = system: SF-268 CNS
SN12C renal = system: SN12C renal
SW-620 colon = system: SW-620 colon
U251 CNS = system: U251 CNS
SK-MEL-2 melanoma = system: SK-MEL-2 melanoma
NCI/ADR-RES ovarian = system: NCI/ADR-RES ovarian

SMILES	TGI (EKVX NSCLC)	TGI (HOP-62 NSCLC)	TGI (NCI-H460 lung)	TGI (OVCAR-5 ovarian)	TGI (SF-268 CNS)	TGI (SN12C renal)	TGI (SW-620 colon)	TGI (U251 CNS)	TGI (SK-MEL-2 melanoma)	GI50 (EKVX NSCLC)	GI50 (HOP-62 NSCLC)	GI50 (NCI-H460 lung)	GI50 (OVCAR-5 ovarian)	GI50 (SF-268 CNS)	GI50 (SK-MEL-2 melanoma)	GI50 (SN12C renal)	GI50 (SW-620 colon)	GI50 (U251 CNS)	GI50 (NCI/ADR-RES ovarian)	TGI (NCI/ADR-RES ovarian)
CC1CCC(O)C(C(O)CC2CC(=O)N(C)C(=O)C2)C1 (stereo not drawn)	> 100 µM	> 100 µM	> 100 µM	> 100 µM	> 100 µM	> 100 µM	> 100 µM	> 100 µM	–	–	–	–	–	–	–	–	–	–	–	–
O=c1c2ccccc2nc(-c2ccccc2)n1NCC1(O)OCC(O)C(O)C1O (stereo not drawn)	> 100 µM	> 100 µM	> 100 µM	> 100 µM	> 100 µM	> 100 µM	> 100 µM	> 100 µM	> 100 µM	–	–	–	–	–	–	–	–	–	–	–
N#Cc1c2c(c(N=[N+]=[N-])n3c1nc1ccccc13)CCCC2	30.9 µM	31 µM	3.82 µM	16.8 µM	16 µM	4.22 µM	4.31 µM	10.3 µM	3.58 µM	–	–	–	–	–	–	–	–	–	–	–
CC(C)OP(=O)(OC(C)C)C(N(C)C)P(=O)(OC(C)C)OC(C)C.[Cl][Sn]([Cl])([Cl])[c]1ccccc1	52.5 µM	7.34 µM	29.6 µM	49.1 µM	31.7 µM	> 100 µM	22.3 µM	> 100 µM	5.3 µM	3.49 µM	2.08 µM	2.15 µM	4.37 µM	2.9 µM	2.15 µM	4.13 µM	3.26 µM	4.47 µM	–	–
CCCCCCCCCCCCCCCC[N+]1(CC)CCCC1	–	2.52 µM	1.62 µM	1.81 µM	1.68 µM	2.44 µM	1.65 µM	1.35 µM	–	–	1.03 µM	0.437 µM	0.439 µM	0.454 µM	–	1.1 µM	0.41 µM	0.363 µM	12.9 µM	38.4 µM
CC1=CC2=C(C)C3(CC3)[C@@](C)(O)C(=O)C2=C1	0.992 µM	0.356 µM	0.431 µM	0.454 µM	0.456 µM	0.557 µM	> 1 µM	0.507 µM	0.365 µM	–	–	–	–	–	–	–	–	–	–	–
CC(=O)NC1C(OCc2ccccc2)OC(COC(=O)CCCCCCCCCCNC(=O)c2cccc3c(=O)c4ccccc4[nH]c23)C(O)C1OC(C)C(=O)NC(C)C(=O)NC(CCC(N)=O)C(N)=O (stereo not drawn)	> 100 µM	> 100 µM	> 100 µM	> 100 µM	> 100 µM	> 100 µM	> 100 µM	> 100 µM	> 100 µM	–	–	–	–	–	–	–	–	–	–	–
c1ccc(SCCCC(Sc2ccccc2)Sc2ccccc2)cc1	> 100 µM	> 100 µM	> 100 µM	–	> 100 µM	> 100 µM	> 100 µM	> 100 µM	> 100 µM	–	–	–	–	–	–	–	–	–	–	–
O=C1C=C(Nc2cccc(Br)c2)c2ccccc2C1=O	–	26.1 µM	25.7 µM	34.3 µM	> 100 µM	23.8 µM	> 100 µM	22.1 µM	22 µM	–	2.29 µM	0.402 µM	14.5 µM	9.01 µM	0.785 µM	5.79 µM	0.482 µM	2.74 µM	10.8 µM	51.6 µM
CC(C)c1ccc(/C=C(\NC(=O)c2ccccc2)c2nc3ccccc3[nH]2)cc1	90 µM	–	> 100 µM	> 100 µM	> 100 µM	> 100 µM	> 100 µM	> 100 µM	89.3 µM	–	–	–	–	–	–	–	–	–	–	–
Cc1nn(-c2ccccc2)c2c1C1C(=C(c3ccc(Cl)cc3)N2)C(=O)Nc2ccccc21 (stereo not drawn)	–	> 100 µM	10.2 µM	7.68 µM	> 100 µM	32.2 µM	> 100 µM	12.3 µM	4.29 µM	–	9.88 µM	3.17 µM	2.27 µM	5.17 µM	1.87 µM	4.96 µM	4.16 µM	2.98 µM	4.32 µM	> 100 µM
c1ccc2c(c1)CCCc1cc3ccccc3nc1-2	> 100 µM	> 100 µM	> 100 µM	> 100 µM	> 100 µM	> 100 µM	> 100 µM	> 100 µM	> 100 µM	–	–	–	–	–	–	–	–	–	–	–
COC(=O)/C(=N\NC(=O)c1ccccc1O)C(C#N)c1ccc(Cl)cc1 (stereo not drawn)	> 100 µM	95.8 µM	> 100 µM	90.3 µM	> 100 µM	> 100 µM	> 100 µM	> 100 µM	> 100 µM	–	–	–	–	–	–	–	–	–	–	–
COc1ccc([Se]c2ccc(OC)cc2OC)c(OC)c1	–	–	> 100 µM	> 100 µM	> 100 µM	> 100 µM	> 100 µM	> 100 µM	92.2 µM	–	–	–	–	–	–	–	–	–	–	–
C/C(=N\NS(=O)(=O)c1ccc(C)cc1)c1ccc[n+]([O-])n1	> 100 µM	> 100 µM	> 100 µM	> 100 µM	> 100 µM	> 100 µM	> 100 µM	> 100 µM	–	–	–	–	–	–	–	–	–	–	–	–
O=C1c2c(O)cccc2C(C(=O)CCCCC(=O)C2c3cccc(O)c3C(=O)c3c(O)cccc32)c2cccc(O)c21	1.64 µM and 3.68 µM	1.66 µM and 2.52 µM	1.35 µM and 1.65 µM	1.22 µM and 1.85 µM	2.39 µM and 6.86 µM	3.89 µM and 9.64 µM	10.1 µM and 7.17 µM	1.01 µM and 2.22 µM	1.22 µM and 2.46 µM	1.55 µM	1.05 µM	–	0.961 µM	2.25 µM	1.24 µM	3.31 µM	1.73 µM	1.02 µM	–	–
CCOC(=O)/C=C1\Nc2ccccc2C(c2ccccc2)=NC1OC(C)=O (stereo not drawn)	> 100 µM	> 100 µM	> 100 µM	–	> 100 µM	> 100 µM	> 100 µM	> 100 µM	> 100 µM	–	–	–	–	–	–	–	–	–	–	–
CCC1OCCN1C(C)C (stereo not drawn)	86.8 µM	–	> 100 µM	> 100 µM	> 100 µM	> 100 µM	> 100 µM	> 100 µM	> 100 µM	–	–	–	–	–	–	–	–	–	–	–
Clc1ccc2c(Cl)ncnc2c1	> 100 µM	> 100 µM	> 100 µM	> 100 µM	> 100 µM	> 100 µM	> 100 µM	> 100 µM	> 100 µM	–	–	–	–	–	–	–	–	–	–	–
CC1OC(=O)N(CCCC=C2SCCCS2)C1=O (stereo not drawn)	> 100 µM	–	> 100 µM	> 100 µM	> 100 µM	> 100 µM	> 100 µM	> 100 µM	> 100 µM	–	–	–	–	–	–	–	–	–	–	–

From PubChem BioAssay (NCI)
